# Assay results published in PubChem BioAssay (NCI).
# Values joined by “and” are separate entries in the source; they are usually repeats but may differ in a detail not shown here. Identical values can stand only once.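 Method: 48-hour compound exposure of cells in 96-well plates, five concentrations, linear interpolation of endpoints. Abbreviation: GI50, concentration required for 50% inhibition of growth. TGI: concentration producing complete growth inhibition.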
# Key:
# Assay in all cases: DTP human tumour cell line panel, 48 h
# 786-0 renal = test system: 786-0 renal
# EKVX NSCLC = test system: EKVX NSCLC
# HT29 colon = test system: HT29 colon
# LOX IMVI melanoma = test system: LOX IMVI melanoma
# RPMI-8226 leukemia = test system: RPMI-8226 leukemia
# SNB-75 CNS = test system: SNB-75 CNS
# T-47D breast = test system: T-47D breast
# TK-10 renal = test system: TK-10 renal
# U251 CNS = test system: U251 CNS
# UO-31 renal = test system: UO-31 renal
Compound,GI50 (786-0 renal),TGI (786-0 renal),GI50 (EKVX NSCLC) [µM],TGI (EKVX NSCLC) [µM],GI50 (HT29 colon),TGI (HT29 colon),GI50 (LOX IMVI melanoma),TGI (LOX IMVI melanoma),GI50 (RPMI-8226 leukemia),TGI (RPMI-8226 leukemia),GI50 (SNB-75 CNS),TGI (SNB-75 CNS),GI50 (T-47D breast),TGI (T-47D breast),GI50 (TK-10 renal),TGI (TK-10 renal),GI50 (U251 CNS) [µM],TGI (U251 CNS),GI50 (UO-31 renal),TGI (UO-31 renal)
COc1cc(NS(=O)(=O)c2ccc(-c3cnc(C4CC4)o3)cc2)ccc1F,0.694 µM,21.4 µM,1.13,95.5,0.268 µM,12.5 µM,0.534 µM,17.9 µM,0.457 µM,39.5 µM,0.158 µM,0.604 µM,0.436 µM,38.9 µM,7.88 µM,53.9 µM,0.572,18.1 µM,0.581 µM,24.1 µM
Cc1ccc(C(=O)Nc2ccc(CN3CCN(C)CC3)c(C(F)(F)F)c2)cc1C#Cc1cnc(N)c2ccccc12,0.435 µM,1.08 µM,0.514,1.28,0.367 µM,1.41 µM,0.509 µM,1.09 µM,0.736 µM,2.08 µM,0.726 µM,1.52 µM,0.861 µM,2.3 µM,0.562 µM,1.36 µM,0.348,1.12 µM,0.241 µM,0.886 µM
COc1ccc(-n2cc(-c3cc(OC)c(OC)c(OC)c3)[nH]c2=O)cc1Cl,27.7 µM,> 100 µM,> 100,> 100,> 100 µM,> 100 µM,> 100 µM,> 100 µM,> 100 µM,> 100 µM,6.69 µM,28.8 µM,> 100 µM,> 100 µM,55.2 µM,> 100 µM,37.7,> 100 µM,> 100 µM,> 100 µM
COc1cc2c(c(OC)c1OC)C(=O)[C@@H]1c3ccc([N+](=O)[O-])cc3C(=O)N(CCCBr)[C@H]21,12.5 µM,33.1 µM,12.7,61.6,14.2 µM,> 100 µM,19.5 µM,> 100 µM,14.8 µM,91.1 µM,9.46 µM,45.1 µM,7.88 µM,> 100 µM,8.04 µM,34.9 µM,23.3,> 100 µM,4.49 µM,25.7 µM
COC(=O)[C@H](Cc1c[nH]c2ccccc12)NC(=O)[C@@H](OC)[C@@H]1Cc2cc3cc(OC4CC(OC5CC(O)C(O)C(C)O5)C(O)C(C)O4)c(C)c(O)c3c(O)c2C(=O)[C@H]1OC1CC(OC2CC(OC3CC(C)(O)C(O)C(C)O3)C(O)C(C)O2)C(O)C(C)O1 (stereo not given in full),0.0158 µM,> 16.5 µM,0.0125,3,0.00611 µM,–,0.00391 µM,0.0111 µM,0.00557 µM,0.0607 µM,0.00465 µM,0.0244 µM,0.0075 µM,> 9.76 µM,0.0651 µM,> 6.46 µM,0.00642,> 16.5 µM,0.215 µM,1.18 µM
CO[C@H]1C=C[C@@]23c4cc5c(cc4CO[C@]2(O)CN(C)[C@H]3C1)OCO5,–,> 100 µM,–,> 100,–,> 100 µM,–,> 100 µM,–,> 100 µM,–,> 100 µM,–,> 100 µM,–,> 100 µM,–,> 100 µM,–,> 100 µM
C=C[C@H]1C[C@@H]2C[C@@H]3[C@H]4C/C=C\C(=O)NCCCC5NC(=O)C(=C(O)/C=C/[C@@H]4CC(=O)[C@H]3[C@@H]2[C@H]1C)C5=O (stereo not given in full),0.173 µM,0.329 µM,1.13,2.54,1.88 µM,3.58 µM,0.187 µM,0.368 µM,1.5 µM,3.68 µM,0.15 µM,0.289 µM,1.65 µM,3.52 µM,0.192 µM,0.419 µM,1.61,3.07 µM,0.15 µM,0.299 µM
COc1ccccc1Cn1cc2c(c1-c1ccccc1)CCc1cnoc1-2,4.04 µM,> 100 µM,2.76,> 100,2.02 µM,7.3 µM,3.04 µM,> 100 µM,3.78 µM,> 100 µM,2.42 µM,7.34 µM,4.49 µM,> 100 µM,4.32 µM,> 100 µM,4.06,> 100 µM,3.46 µM,78.6 µM
CCN(CC)CCCC(C)Nc1cnc(C(=O)Nc2cccc3ccc(OC)nc23)cn1 (stereo not given),1.64 µM,3.21 µM,2.52,8.36,1.78 µM,3.51 µM,1.77 µM,3.34 µM,2.45 µM,6.15 µM,10.6 µM,22.8 µM,1.85 µM,3.95 µM,15.4 µM,29.7 µM,1.81,3.52 µM,1.46 µM,2.82 µM
O=C1OC(c2ccco2)=N/C1=C\c1cccc([N+](=O)[O-])c1,–,> 100 µM,–,> 100,–,> 100 µM,–,> 100 µM,–,> 100 µM,–,> 100 µM,–,> 100 µM,–,> 100 µM,–,> 100 µM,–,–
CSc1nc2cc(S(=O)(=O)N3CCCCC3)ccc2s1,–,> 100 µM,–,> 100,–,> 100 µM,–,> 100 µM,–,> 100 µM,–,> 100 µM,–,> 100 µM,–,> 100 µM,–,> 100 µM,–,> 100 µM
COc1cc2c3c(n(CCCCOC(=O)C(Cl)(Cl)Cl)c(=O)c2cc1OC)-c1cc2c(cc1C3=O)OCO2,17.2 µM,41.3 µM,> 100,> 100,> 100 µM,> 100 µM,35.9 µM,> 100 µM,> 100 µM,> 100 µM,> 100 µM,> 100 µM,> 100 µM,> 100 µM,> 100 µM,> 100 µM,21.5,> 100 µM,14.1 µM,> 100 µM
COc1ccc(-c2nnc(COc3ccc(NC(=O)Nc4ccc(Cl)c(C(F)(F)F)c4)cc3F)o2)cc1,3.24 µM,12 µM,–,–,3.57 µM,22.4 µM,2.93 µM,> 100 µM,1.53 µM,5 µM,1.48 µM,8.36 µM,3.02 µM,14.5 µM,9.09 µM,41.4 µM,1.93,5.7 µM,2.88 µM,16.6 µM
O=c1[nH]c(=O)n(C2OC(CO)C(O)C(O)C2O)cc1F (stereo not given),–,> 100 µM,–,> 100,–,> 100 µM,–,> 100 µM,–,> 100 µM,–,> 100 µM,–,> 100 µM,–,> 100 µM,–,> 100 µM,–,> 100 µM
Cc1nc(-c2ccccc2)c(-c2ccccc2)s1,–,50.8 µM,–,69.4,–,41.7 µM,–,37.1 µM,–,37.5 µM,–,> 100 µM,–,> 100 µM,–,52.8 µM,–,29.5 µM,–,54.1 µM
C=C(C)C1CCC2(C(=O)O)CCC3(C)C(CCC4C5(C)CCC(OC(=O)NCc6ccccc6)C(C)(C)C5CCC43C)C12 (stereo not given),3.98 µM,> 100 µM,1.71,> 100,3.42 µM,30.4 µM,4.84 µM,> 100 µM,0.757 µM,6.49 µM,98.4 µM,> 100 µM,3.19 µM,> 100 µM,3.76 µM,58.4 µM,3.07,> 100 µM,1.86 µM,34.5 µM
CCOC(=O)c1c(C)nc2c(c1N)/C(=C/c1ccc(OC)cc1)C(=O)N2Cc1ccc(F)cc1,0.165 µM,0.389 µM,0.27,2.26,0.171 µM,0.587 µM,0.164 µM,0.34 µM,0.224 µM,0.653 µM,1.03 µM,4.83 µM,0.148 µM,1.91 µM,0.264 µM,1 µM,0.197,0.508 µM,0.132 µM,0.301 µM
O=C(/C=C\n1cnc(-c2cc(C(F)(F)F)cc(C(F)(F)F)c2)n1)NNc1cnccn1,0.0781 µM,13.9 µM,0.0853,14.5,0.131 µM,22.4 µM,0.0446 µM,1.5 µM,0.0449 µM,> 47.3 µM,0.118 µM,1.97 µM,0.143 µM,15.7 µM,0.466 µM,16.5 µM,0.0511,12.4 µM,0.12 µM,12.8 µM
C/C(=N\Nc1ccc(Cl)cn1)c1ccccn1,0.206 µM,> 33.9 µM,0.0516,> 83.7,< 0.0419 µM,> 59.9 µM,0.113 µM,> 24.2 µM,0.0572 µM,12.3 µM,0.208 µM,> 76.2 µM,0.0372 µM,> 38.8 µM,2.06 µM,97.7 µM,0.218,> 100 µM,0.0344 µM,1.86 µM
CCC(=O)c1c(C(F)(F)F)n([O-])c2ccc(C)cc2[n+]1=O,22 µM,> 50 µM,1.52,6.09,14.1 µM,> 50 µM,7.47 µM,17.9 µM,12.4 µM,> 50 µM,15.9 µM,> 50 µM,6.51 µM,26.8 µM,0.812 µM,6.61 µM,10.7,> 50 µM,1.48 µM,> 50 µM
COc1ccc(OC)c(C(=O)c2oc3ccc(Br)cc3c2N)c1,0.581 µM,47.4 µM,–,–,0.326 µM,10.7 µM,0.581 µM,22.4 µM,0.37 µM,6.51 µM,0.253 µM,1.68 µM,0.452 µM,> 67.6 µM,1.74 µM,87.7 µM,0.397,16.4 µM,0.707 µM,> 69.3 µM
CCc1oc2ccccc2c1C(=O)c1cc(I)c(O)c(I)c1,3.76 µM,15.3 µM,3.59,15.4,3.61 µM,14.5 µM,3.51 µM,17.1 µM,2.33 µM,30.5 µM,1.54 µM,6.43 µM,4.56 µM,20.8 µM,9.81 µM,23.4 µM,4.4,18.3 µM,1.82 µM,10.5 µM
CC[C@H](C)[C@H]1O[C@]2(C=C[C@@H]1C)C[C@@H]1C[C@@H](C/C=C(\C)[C@@H](O[C@H]3C[C@H](OC)[C@@H](O[C@H]4C[C@H](OC)[C@@H](NC)[C@H](C)O4)[C@H](C)O3)[C@@H](C)/C=C/C=C3\CO[C@@H]4[C@H](O)C(C)=C[C@@H](C(=O)O1)[C@]34O)O2,1.26 µM,2.94 µM,2.13,6.51,1.88 µM,4.14 µM,1.68 µM,3.13 µM,3.32 µM,13.6 µM,1.93 µM,8.44 µM,4.4 µM,16.8 µM,1.96 µM,4.99 µM,1.91,4.07 µM,1.69 µM,4.13 µM
Cc1ccc2c(c1)CN(C(=O)CCC(=O)OCc1ccccc1)c1ccc(C)cc1CN2C(=O)CCC(=O)OCc1ccccc1,–,> 100 µM,–,> 100,–,> 100 µM,–,> 100 µM,–,> 100 µM,–,62.6 µM,–,> 100 µM,–,> 100 µM,–,> 100 µM,–,–
CON(C)C(=O)N1N=C(c2cc(F)ccc2F)SC1(CCCN)c1ccccc1 (stereo not given),0.0574 µM and < 0.01 µM,18.1 µM and 18.5 µM,–,–,0.0301 µM and < 0.01 µM,5.05 µM and 10.8 µM,0.024 µM and < 0.01 µM,17.5 µM and 16.4 µM,0.0131 µM and < 0.01 µM,11 µM and 9.04 µM,0.0531 µM and < 0.01 µM,16.2 µM and 15 µM,0.0279 µM and < 0.01 µM,18.7 µM and 18.2 µM,3.19 µM and 2.33 µM,18.8 µM and 17.7 µM,< 0.01,13.4 µM and 13.7 µM,3.37 µM and 2.21 µM,21.8 µM and 20.5 µM
C/C=C(\C)CC/C=C/CO[Si](C)(C)C(C)(C)C,–,> 100 µM,–,> 100,–,> 100 µM,–,49.9 µM,–,> 100 µM,–,> 100 µM,–,> 100 µM,–,> 100 µM,–,–,–,> 100 µM
